Source: paper PMC9406199, “Conformational Plasticity of Centrin 1 from Toxoplasma gondii in Binding to the Centrosomal Protein SFI1” (Biomolecules, 2022)
Where no end group is shown, it is not given here.

Legend:
[1] = target: T1, TgCEN1 (recombinant, lacking the first 21 residues) (Toxoplasma gondii, UniProt A0A125YHX7); experiment: ITC titration of TgSFI1 peptides into TgCEN1; type: binding; details: for TΔS: T 298 K
T1 construct: TgCEN1 (lacking the first 21 residues) and its N-terminal (N-TgCEN1, 22–94 aa) and C-terminal (C-TgCEN1, 95–169 aa) domains; made in house
Description: (§1) The recombinant TgCEN1 (lacking the first 21 residues) and its N-terminal (N-TgCEN1, 22–94 aa) and C-terminal (C-TgCEN1, 95–169 aa) domains were purified as previously described. The TgSFI1 peptides were synthesized by GenScript U.S.A. Inc. (Piscataway, NJ, USA). The concentration of each peptide was determined using their predicted molar extinction coefficient at 280 nm.
(§2) Isothermal titration calorimetry (ITC) experiments were performed on a MicroCal PEAQ-ITC instrument (Malvern Ltd., Malvern, UK) at 25 °C. Protein samples and peptides were solubilized in the same buffer containing 50 mM Tris–HCl, 150 mM KCl pH 7.5 and 5 mM CaCl2 or 5 mM EGTA. All the samples were filtered and degassed before use, and the pH was carefully determined to exclude any possible pH-related effect on ITC experiments.
(§3) A typical ITC experiment was performed by titrating 200 μL of a 30–50 μM protein solution with a 1 or 1.5 μL injection of 0.3–0.5 mM peptide (total injections 39 or 26, respectively) with an initial delay of 120 s and keeping a time gap of 120 s between injections. A reference injection of peptide into buffer without centrin was performed and subtracted from each experiment. The resulting curves were fitted to calculate apparent dissociation constants Kd, enthalpy changes (ΔH), and the apparent entropy change (ΔS) using the software MicroCal ITC Origin 7 Analysis Software (MicroCal, Malvern Ltd., Malvern, UK). All measurements were repeated in triplicate using at least two different protein preparations and the error was calculated as the mean standard error of the three measurements.

[2] = target: T2, C-TgCEN1 (C-terminal domain, 95–169 aa) (Toxoplasma gondii, UniProt A0A125YHX7); experiment: ITC titration of TgSFI1 peptides into C-TgCEN1; type: binding; details: SEM; for Kd / n (stoichiometry of binding) / ΔH: 25 °C; for Kd / n (stoichiometry of binding): 50 mM Tris-HCl; for TΔS: T 298 K
T2 construct: C-terminal (C-TgCEN1, 95–169 aa); made in house
Description: as §1, §2, §3

[3] = target: T3, N-TgCEN1 (N-terminal domain, 22–94 aa) (Toxoplasma gondii, UniProt A0A125YHX7); experiment: ITC titration of TgSFI1 peptides into N-TgCEN1; type: binding; details: SEM
T3 construct: N-terminal (N-TgCEN1, 22–94 aa); made in house
Description: as §1, §2, §3

[4] = target: TgSFI1 R16 peptide R16 (Toxoplasma gondii) (UniProt S8F258); experiment: ITC
[5] = 25 °C, 50 mM Tris-HCl, 150 mM KCl pH 7.5, 5 mM CaCl2, single binding site, mean ± SE of triplicate, SEM
[6] = 150 mM KCl pH 7.5, 5 mM CaCl2, mean ± SE of triplicate
[7] = Ca2+-bound TgCEN1, single exothermic event, order of magnitude in text
[8] = 25 °C, 50 mM Tris-HCl, 150 mM KCl pH 7.5, 5 mM EGTA, mean ± SE of triplicate, dash = no binding observed, SEM
[9] = 150 mM KCl pH 7.5, 5 mM EGTA, mean ± SE of triplicate, dash = no binding observed
[10] = 25 °C, 50 mM Tris-HCl, 150 mM KCl pH 7.5, 5 mM CaCl2, first site (n1) of two-step binding, mean ± SE of triplicate, SEM
[11] = 25 °C, 50 mM Tris-HCl, 150 mM KCl pH 7.5, 5 mM CaCl2, second site (n2) of two-step binding, mean ± SE of triplicate, SEM
[12] = pH 7.5, 5 mM CaCl2, mean ± SE of triplicate
[13] = pH 7.5, 5 mM EGTA, mean ± SE of triplicate

T1 sequence (A0A125YHX7 22-169): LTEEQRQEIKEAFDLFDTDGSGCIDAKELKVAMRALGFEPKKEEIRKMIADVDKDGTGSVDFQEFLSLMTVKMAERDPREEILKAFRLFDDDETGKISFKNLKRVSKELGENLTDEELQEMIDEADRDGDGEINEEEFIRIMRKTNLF
T3 sequence (A0A125YHX7 22-94): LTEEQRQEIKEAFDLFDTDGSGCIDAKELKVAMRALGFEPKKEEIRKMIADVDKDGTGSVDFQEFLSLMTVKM
T2 sequence (A0A125YHX7 95-169): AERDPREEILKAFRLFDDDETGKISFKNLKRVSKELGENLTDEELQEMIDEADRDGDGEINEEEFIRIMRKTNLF
Sequence of TgSFI1 R16 peptide R16 (Toxoplasma gondii) (S8F258 whole entry): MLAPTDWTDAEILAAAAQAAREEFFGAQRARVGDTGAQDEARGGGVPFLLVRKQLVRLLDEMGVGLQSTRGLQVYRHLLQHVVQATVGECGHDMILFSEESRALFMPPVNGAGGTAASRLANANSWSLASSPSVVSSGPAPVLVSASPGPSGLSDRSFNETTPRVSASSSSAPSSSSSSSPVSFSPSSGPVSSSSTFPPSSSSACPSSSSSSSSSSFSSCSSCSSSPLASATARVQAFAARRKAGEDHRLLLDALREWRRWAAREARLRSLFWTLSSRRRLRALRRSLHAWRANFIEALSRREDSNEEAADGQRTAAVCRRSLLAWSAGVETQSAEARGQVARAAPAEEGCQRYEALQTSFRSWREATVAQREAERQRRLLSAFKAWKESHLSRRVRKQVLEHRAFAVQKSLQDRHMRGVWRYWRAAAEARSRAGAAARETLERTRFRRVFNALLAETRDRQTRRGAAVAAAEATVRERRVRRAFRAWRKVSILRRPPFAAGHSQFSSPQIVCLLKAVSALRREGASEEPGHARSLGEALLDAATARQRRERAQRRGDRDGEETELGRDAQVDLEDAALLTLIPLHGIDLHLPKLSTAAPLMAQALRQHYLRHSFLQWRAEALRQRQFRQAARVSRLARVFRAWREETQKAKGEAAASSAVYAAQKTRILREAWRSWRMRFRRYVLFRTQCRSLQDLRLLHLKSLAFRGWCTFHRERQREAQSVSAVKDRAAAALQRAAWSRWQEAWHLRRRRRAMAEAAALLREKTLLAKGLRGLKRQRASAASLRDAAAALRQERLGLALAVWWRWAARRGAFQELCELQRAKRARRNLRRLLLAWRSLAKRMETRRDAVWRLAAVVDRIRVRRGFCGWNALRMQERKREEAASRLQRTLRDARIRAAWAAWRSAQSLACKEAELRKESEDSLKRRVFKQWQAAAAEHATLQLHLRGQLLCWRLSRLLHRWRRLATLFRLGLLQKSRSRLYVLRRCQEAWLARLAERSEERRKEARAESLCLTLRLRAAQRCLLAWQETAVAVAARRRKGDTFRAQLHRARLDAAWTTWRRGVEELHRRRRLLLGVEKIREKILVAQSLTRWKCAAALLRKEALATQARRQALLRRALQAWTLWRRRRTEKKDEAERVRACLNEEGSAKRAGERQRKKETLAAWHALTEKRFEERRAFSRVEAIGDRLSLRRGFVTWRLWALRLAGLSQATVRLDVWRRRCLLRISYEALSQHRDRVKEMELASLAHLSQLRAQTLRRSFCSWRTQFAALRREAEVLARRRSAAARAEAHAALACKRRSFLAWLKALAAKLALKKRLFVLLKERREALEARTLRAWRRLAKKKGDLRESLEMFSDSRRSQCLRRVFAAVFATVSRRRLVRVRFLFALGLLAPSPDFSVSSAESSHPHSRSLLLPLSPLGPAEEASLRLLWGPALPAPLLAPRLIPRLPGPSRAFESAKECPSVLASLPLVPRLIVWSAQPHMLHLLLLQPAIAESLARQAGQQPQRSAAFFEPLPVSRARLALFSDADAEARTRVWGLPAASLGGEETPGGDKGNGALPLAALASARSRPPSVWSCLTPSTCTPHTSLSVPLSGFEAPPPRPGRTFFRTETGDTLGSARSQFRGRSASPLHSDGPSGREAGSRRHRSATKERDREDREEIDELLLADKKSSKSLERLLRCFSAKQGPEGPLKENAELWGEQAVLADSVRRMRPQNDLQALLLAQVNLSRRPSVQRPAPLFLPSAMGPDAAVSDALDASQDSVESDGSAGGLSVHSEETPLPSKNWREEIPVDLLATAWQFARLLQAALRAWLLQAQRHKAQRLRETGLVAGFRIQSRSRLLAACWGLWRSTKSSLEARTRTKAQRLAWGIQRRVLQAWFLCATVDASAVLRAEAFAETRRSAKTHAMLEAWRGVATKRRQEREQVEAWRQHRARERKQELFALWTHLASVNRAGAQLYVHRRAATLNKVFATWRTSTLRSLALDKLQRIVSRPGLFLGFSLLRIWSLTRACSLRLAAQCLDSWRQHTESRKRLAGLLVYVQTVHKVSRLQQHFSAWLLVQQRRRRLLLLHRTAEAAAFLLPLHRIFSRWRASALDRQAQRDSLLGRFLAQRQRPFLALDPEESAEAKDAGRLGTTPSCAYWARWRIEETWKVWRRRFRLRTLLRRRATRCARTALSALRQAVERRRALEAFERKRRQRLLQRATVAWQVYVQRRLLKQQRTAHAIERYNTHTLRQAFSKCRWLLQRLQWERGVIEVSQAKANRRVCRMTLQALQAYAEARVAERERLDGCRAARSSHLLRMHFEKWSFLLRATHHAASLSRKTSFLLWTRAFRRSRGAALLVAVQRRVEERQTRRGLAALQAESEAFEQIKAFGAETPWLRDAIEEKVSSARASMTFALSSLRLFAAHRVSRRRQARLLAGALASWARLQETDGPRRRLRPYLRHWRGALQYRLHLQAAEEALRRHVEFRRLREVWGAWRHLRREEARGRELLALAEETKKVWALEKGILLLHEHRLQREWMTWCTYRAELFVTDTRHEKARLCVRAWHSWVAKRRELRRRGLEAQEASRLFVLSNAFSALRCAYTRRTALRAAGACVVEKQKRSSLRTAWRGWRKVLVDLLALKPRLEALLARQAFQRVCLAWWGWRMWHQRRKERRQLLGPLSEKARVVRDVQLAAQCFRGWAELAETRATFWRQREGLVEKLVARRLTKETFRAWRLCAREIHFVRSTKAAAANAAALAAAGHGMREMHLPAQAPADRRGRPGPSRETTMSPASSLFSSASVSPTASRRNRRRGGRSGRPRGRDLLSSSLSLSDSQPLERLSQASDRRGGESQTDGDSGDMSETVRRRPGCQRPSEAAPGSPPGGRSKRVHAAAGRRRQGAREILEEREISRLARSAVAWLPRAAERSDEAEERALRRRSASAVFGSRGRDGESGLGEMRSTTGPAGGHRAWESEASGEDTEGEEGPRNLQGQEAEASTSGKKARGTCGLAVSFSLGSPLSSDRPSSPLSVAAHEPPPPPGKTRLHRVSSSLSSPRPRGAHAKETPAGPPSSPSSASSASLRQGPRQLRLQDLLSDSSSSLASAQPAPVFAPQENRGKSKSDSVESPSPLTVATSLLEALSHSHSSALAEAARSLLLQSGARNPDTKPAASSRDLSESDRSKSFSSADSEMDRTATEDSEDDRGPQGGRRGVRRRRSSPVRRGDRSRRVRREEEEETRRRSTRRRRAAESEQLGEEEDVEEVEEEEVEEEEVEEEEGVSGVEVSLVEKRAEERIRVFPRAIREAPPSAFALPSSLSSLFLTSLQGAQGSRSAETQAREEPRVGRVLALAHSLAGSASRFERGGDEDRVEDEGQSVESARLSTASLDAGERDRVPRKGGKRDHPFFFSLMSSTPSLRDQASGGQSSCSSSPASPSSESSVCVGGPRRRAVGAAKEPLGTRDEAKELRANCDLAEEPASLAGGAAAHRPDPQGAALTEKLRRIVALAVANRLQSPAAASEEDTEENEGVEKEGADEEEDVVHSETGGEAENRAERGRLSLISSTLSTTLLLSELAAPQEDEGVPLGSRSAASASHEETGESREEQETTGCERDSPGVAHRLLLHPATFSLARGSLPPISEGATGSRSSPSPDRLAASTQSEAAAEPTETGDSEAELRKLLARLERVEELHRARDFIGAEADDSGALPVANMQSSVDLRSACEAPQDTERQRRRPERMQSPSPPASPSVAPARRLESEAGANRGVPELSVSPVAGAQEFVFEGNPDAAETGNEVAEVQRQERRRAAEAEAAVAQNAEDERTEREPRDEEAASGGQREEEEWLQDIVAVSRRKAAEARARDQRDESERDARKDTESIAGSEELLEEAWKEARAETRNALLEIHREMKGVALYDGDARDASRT
Sequence of TgCEN1 (A0A125YHX7 whole entry): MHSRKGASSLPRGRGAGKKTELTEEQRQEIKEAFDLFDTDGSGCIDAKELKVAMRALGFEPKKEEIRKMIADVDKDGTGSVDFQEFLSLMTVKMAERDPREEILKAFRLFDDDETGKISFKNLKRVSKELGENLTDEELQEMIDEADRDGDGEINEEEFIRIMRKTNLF

In the case of RVEAIGDRLSLRRGFVTWRL [R17], the Kd [1, 5] is reported as 800 ± 200 nM and the Kd [2, 6] is reported as 2700 ± 100 nM.

With VVEKQKRSSLRTAWRGWR [R31] the Kd [1, 5] was 2900 ± 100 nM, the Kd [1, 7] was ~1000 nM and the Kd [2, 6] was 1900 ± 100 nM.

Work on AEATVRERRVRRAFRAWR [R5] yielded a Kd [1, 5] of 500 ± 100 nM, a Kd [1, 8] of 36900 ± 6600 nM and a Kd [2, 6] of 900 ± 100 nM. For the same substance, the Kd [2, 9] was 47800 ± 4900 nM.

With AEAAAFLLPLHRIFSRWR [R24] the Kd [1, 5] was 3400 ± 600 nM, the Kd [1, 7] was ~1000 nM and the Kd [2, 6] was 2600 ± 300 nM.

For LQRAKRARRNLRRLLLAWRS [R10], the “n (stoichiometry of binding), n1” value [1, 10] was “n1 = 0.7 ± 0.1”, the “n (stoichiometry of binding), n2” value [1, 11] was “n2 = 0.9 ± 0.1” and the “n (stoichiometry of binding)” value ([1]; 25 °C, 50 mM Tris-HCl, 150 mM KCl pH 7.5, 5 mM EGTA, mean ± SE of triplicate, SEM) was 0.8 ± 0.1. For the same substance, the ΔH ([1]; 25 °C, pH 7.5, 5 mM CaCl2, first site (n1), mean ± SE of triplicate, SEM) was -19.1 ± 0.4 kcal/mol, the ΔH ([1]; 25 °C, pH 7.5, 5 mM CaCl2, second site (n2), mean ± SE of triplicate, SEM) was -12.1 ± 0.3 kcal/mol and the ΔH ([1]; 25 °C, pH 7.5, 5 mM EGTA, mean ± SE of triplicate, SEM) was -24.7 ± 0.4 kcal/mol. For the same substance, the TΔS ([1]; pH 7.5, 5 mM CaCl2, first site (n1), mean ± SE of triplicate, SEM) was -6.3 ± 0.4 kcal/mol, the TΔS ([1]; pH 7.5, 5 mM CaCl2, second site (n2), mean ± SE of triplicate, SEM) was -4.4 ± 0.3 kcal/mol and the TΔS ([1]; pH 7.5, 5 mM EGTA, mean ± SE of triplicate, SEM) was -16.4 ± 0.4 kcal/mol. For the same substance, the “n (stoichiometry of binding)” value ([3]; 25 °C, 50 mM Tris-HCl, 150 mM KCl pH 7.5, 5 mM CaCl2, mean ± SE of triplicate) was 0.7 ± 0.1, the ΔH ([3]; 25 °C, pH 7.5, 5 mM CaCl2, mean ± SE of triplicate) was -12.6 ± 0.9 kcal/mol and the TΔS ([3]; T 298 K, pH 7.5, 5 mM CaCl2, mean ± SE of triplicate) was -4.4 ± 1.0 kcal/mol. For the same substance, the “n (stoichiometry of binding)” value [2, 6] was 0.7 ± 0.1, the “n (stoichiometry of binding)” value ([2]; 150 mM KCl pH 7.5, 5 mM EGTA, mean ± SE of triplicate) was 0.7 ± 0.1 and the ΔH [2, 12] was -15.8 ± 0.1 kcal/mol. The ΔH [2, 13] was -19.3 ± 0.1 kcal/mol, the TΔS [2, 12] was -5.5 ± 0.5 kcal/mol and the TΔS [2, 13] was -11.5 ± 0.7 kcal/mol.

Work on TgCEN1 (from UniProt A0A125YHX7) yielded a Kd [4] of 9 nM.

For LQRTLRDARIRAAWAAWR [R12], the Kd [1, 5] was 500 ± 100 nM, the Kd [1, 8] was 29800 ± 3400 nM and the Kd [2, 6] was 400 ± 100 nM. The Kd [2, 9] was 69900 ± 7000 nM.

LATQARRQALLRRALQAWTL [R16] was tested, and the Kd [1, 10] was 9 ± 1 nM, the Kd [1, 11] was 500 ± 100 nM and the Kd [1, 8] was 3400 ± 300 nM. For the same substance, the Kd ([3]; 25 °C, 50 mM Tris-HCl, 150 mM KCl pH 7.5, 5 mM CaCl2, mean ± SE of triplicate, dash = no binding observed) was 400 ± 100 nM, the Kd [2, 6] was 6 ± 1 nM and the Kd [2, 9] was 9100 ± 800 nM.
